# In PMC8634693 (European Journal of Medicinal Chemistry, 2021):
# Entries after “also recorded” stand apart in the source; their conditions may differ.
# How the values were obtained:
# SARS-CoV-2 3CL^pro [1] = target: T1, SARS-CoV-2 3CL^pro (Severe acute respiratory syndrome coronavirus 2, UniProt P0DTD1); type: biochemical
# [2] = Gastrointestinal stability in simulated gastric fluid; type: in vitro ADME; conditions: 20 μM, 37 °C, in 90 min
# SARS-CoV-2 3CL^pro [3] = target: T1, SARS-CoV-2 3CL^pro; type: biochemical; remark: listed apart in the source
# [4] = Phase II metabolic stability; conditions: human liver microsomes, in the presence of UDPGA
# [5] = Plasma stability in human plasma; type: in vitro ADME; conditions: 37 °C, up to 12 h
# [6] = Phase I metabolic stability in human liver microsomes
Compound,"inhibitory activity against SARS-CoV-2 3CLpro, in words (SARS-CoV-2 3CL^pro [1])",further results
CC(=O)OCC1Cc2c(-c3ccc(Br)cn3)cccc2-c2c(O)ccc(C)c21 (stereo not shown) [Compound A20],increased inhibitory activities,–
CC(=O)OCC1Cc2c(cccc2-c2ncnc3c2ncn3CC2CC2)-c2c(O)ccc(C)c21 (stereo not shown) [Compound A27],no inhibitory activity,–
CC(=O)OCC1Cc2c(-c3cc(C)ccn3)cccc2-c2c(O)ccc(C)c21 (stereo not shown) [Compound A16],comparable inhibitory activities with A1,–
"OCC1Cc2c(-c3cc(-c4ccccc4)ccn3)cccc2-c2c(O)ccc(-c3ccc(Br)cc3)c21 (stereo not shown) [Compound C1, 1-(4-bromophenyl)-10-(hydroxymethyl)-8-(4-phenylpyridin-2-yl)-9,10-dihydrophenanthren-4-ol]",–,"gastrointestinal stability in SGF and SIF [2]: good gastrointestinal stabilities; inhibitory effects against CYPs (major CYPs in HLMs): moderate inhibitory effects; Inhibition mode (SARS-CoV-2 3CL^pro [3]): Mixed; inhibition manner (SARS-CoV-2 3CL^pro [3]): mixed-inhibition; metabolism by human hepatic UDP-glucuronosyltransferases (hUGTs), in words [4]: hardly metabolized; plasma stability, in words [5]: prominent; also recorded: excellent plasma stability; metabolism by human cytochrome P450 enzymes (hCYPs), in words [6]: hardly metabolized"
COc1ccc(-c2ccccn2)c2c1-c1c(O)ccc(C)c1C(COC(C)=O)C2 (stereo not shown) [Compound A9],significant loss of potency,–
CC(=O)OCC1Cc2c(-c3ccccn3)ccc(Br)c2-c2c(O)ccc(C)c21 (stereo not shown) [Compound A12],significant loss of potency,–
CC(=O)OCC1Cc2c(-c3ccncn3)cccc2-c2c(O)ccc(C)c21 (stereo not shown) [Compound A25],no inhibitory activity,–
"OCC1Cc2c(-c3ccc(Cl)cn3)cccc2-c2c(O)ccc(-c3ccc(Br)cc3)c21 (stereo not shown) [Compound C5, 1-(4-bromophenyl)-8-(5-chloropyridin-2-yl)-10-(hydroxymethyl)-9,10-dihydrophenanthren-4-ol]",slight decreases in the inhibitory activity,–
CC(=O)OCC1Cc2c(-c3ccc(Cl)cn3)cccc2-c2c(O)ccc(C)c21 (stereo not shown) [Compound A19],increased inhibitory activities,–
CC(=O)OCC1Cc2c(-c3ccc4ccccc4n3)cccc2-c2c(O)ccc(C)c21 (stereo not shown) [Compound A23],increased inhibitory activities,–
CC(=O)OCC1Cc2c(-c3ncccc3C)cccc2-c2c(O)ccc(C)c21 (stereo not shown) [Compound A15],comparable inhibitory activities with A1,–
CC(=O)OCC1Cc2c(cccc2-n2cccn2)-c2c(O)ccc(C)c21 (stereo not shown) [Compound A26],no inhibitory activity,–
"O=Cc1ccnc(-c2cccc3c2CC(CO)c2c(-c4ccc(Br)cc4)ccc(O)c2-3)c1 (stereo not shown) [Compound C2, 2-(8-(4-bromophenyl)-5-hydroxy-9-(hydroxymethyl)-9,10-dihydrophenanthren-1-yl)isonicotinaldehyde]",–,"gastrointestinal stability in SGF and SIF [2]: good gastrointestinal stabilities; Inhibition mode (SARS-CoV-2 3CL^pro [3]): Mixed; inhibition manner (SARS-CoV-2 3CL^pro [3]): mixed-inhibition; metabolism by human hepatic UDP-glucuronosyltransferases (hUGTs), in words [4]: moderately metabolized; metabolism by human cytochrome P450 enzymes (hCYPs), in words [6]: readily metabolized"
CC(=O)OCC1Cc2c(-c3ncccn3)cccc2-c2c(O)ccc(C)c21 (stereo not shown) [Compound A24],no inhibitory activity,–
CC(=O)OCC1Cc2c(-c3ccccn3)ccc(C)c2-c2c(O)ccc(C)c21 (stereo not shown) [Compound A8],significant loss of potency,–
C=CCn1cnc2c(-c3cccc4c3CC(COC(C)=O)c3c(C)ccc(O)c3-4)ncnc21 (stereo not shown) [Compound A28],no inhibitory activity,–
"OCC1Cc2c(-c3ccc(F)cn3)cccc2-c2c(O)ccc(-c3ccc(Br)cc3)c21 (stereo not shown) [Compound C4, 1-(4-bromophenyl)-8-(5-fluoropyridin-2-yl)-10-(hydroxymethyl)-9,10-dihydrophenanthren-4-ol]",slight decreases in the inhibitory activity,–
CC(=O)OCC1Cc2c(-c3ccc(F)cn3)cccc2-c2c(O)ccc(C)c21 (stereo not shown) [Compound A18],comparable inhibitory activities with A1,–
CC(=O)OCC1Cc2c(-c3ccccn3)ccc(F)c2-c2c(O)ccc(C)c21 (stereo not shown) [Compound A10],significant loss of potency,–
CC(=O)OCC1Cc2c(-c3cc4ccccc4cn3)cccc2-c2c(O)ccc(C)c21 (stereo not shown) [Compound A22],increased inhibitory activities,–
CC(=O)OCC1Cc2c(cccc2-c2nccc3ccccc23)-c2c(O)ccc(C)c21 (stereo not shown) [Compound A21],increased inhibitory activities,–
